Results taken from patent US20110237567A9, “TRICYCLIC SPIRO-OXINDOLE DERIVATIVES AND THEIR USES AS THERAPEUTIC AGENTS” (XENON PHARMACEUTICALS INC., priority 2006, published 2011).

Experiments:
[1] = tested on: sodium channel; assay: Guanidine influx assay (in vitro); type: cell-based, human or rat; conditions: known cell line that expresses a sodium channel; read-out: IC50 Activity Level
Source text: This example describes an in vitro assay for testing and profiling test agents against human or rat sodium channels stably expressed in cells of either an endogenous or recombinant origin. The assay is also useful for determining the IC-50 of a sodium channel blocking compound. The assay is based on the guanidine flux assay described by Reddy, N. L., et al., J Med Chem (1998), 41(17):3298-302.
The guanidine influx assay is a radiotracer flux assay used to determine ion flux activity of sodium channels in a high-throughput microplate-based format. The assay uses ^14C-guanidine hydrochloride in combination with various known sodium channel modulators, to assay the potency of test agents. Potency is determined by an IC-50 calculation. Selectivity is determined by comparing potency of the compound for the channel of interest to its potency against other sodium channels (also called ‘selectivity profiling’). […]
Cells expressing the channel of interest are grown according to the supplier or in the case of a recombinant cell in the presence of selective growth media such as G418 (Gibco/Invitrogen). The cells are disassociated from the culture dishes with an enzymatic solution (1×) Trypsin/EDTA (Gibco/Invitrogen) and analyzed for density and viability using haemocytometer (Neubauer). […]
IC-50 value of a test agent for a specific sodium channel may be determined using the above general method. […]

SMILES	IC50 [1]	melting point
O=C1N2CCCOc3cccc(c32)C12COc1cc3c(cc12)OCO3 (stereo not drawn) [Example 2]	100 to 1000 nM	–
O=C1N2CCCCc3ccc(Br)c(c32)C12COc1cc3c(cc12)OCO3 (stereo not drawn) [Example 4]	10 to 100 nM	–
O=C1N2CCCSc3cccc(c32)C12COc1cc3c(cc12)OCO3 (stereo not drawn) [Synthetic Example 1, 3′,4′-Dihydro-2′H-spiro[furo[2,3-f][1,3]benzodioxole-7,7′-[1,4]thiazepino[2,3,4-hi]indol]-6′-one]	–	216 to 217 °C
